Results from the supplement of paper PMC8612539.
Values after ≈ are worked out from the molar mass of the structure shown.

How the values were obtained:
Enterococcus spp. = assay: minimum inhibitory concentration (MIC)
Protocol: (§1)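 Broth microdilution MIC (Sensititre BOPO7F bovine plate, CLSI methods) of 19 antimicrobials against field isolates of P. multocida, M. haemolytica, H. somni (deep nasopharyngeal swabs) and E. coli, Enterococcus spp. (rectal swabs) from weaned dairy heifers. Incubation 16-24 h at 35 C. MIC is the lowest concentration preventing visible growth. Values with <= or > lie at the tested range limits. Trimethoprim-sulfamethoxazole is given as the trimethoprim component of a 1:19 mixture.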

Mannheimia haemolytica = assay: minimum inhibitory concentration (MIC)
Protocol: as §1

CC1(C)S[C@@H]2[C@H](NC(=O)Cc3ccccc3)C(=O)N2[C@H]1C(=O)O [Penicillin]
minimum inhibitory concentration [µg/mL]
Settings | Enterococcus spp. | Mannheimia haemolytica
isolate (source animal id): 2 | ≤ 0.12 | –
isolate (source animal id): 8 | – | 0.25 (≈ 0.748 µM)
isolate (source animal id): 13 | – | 0.25 (≈ 0.748 µM)
isolate (source animal id): 18 | – | ≤ 0.12
isolate (source animal id): 21 | – | 0.25 (≈ 0.748 µM)
isolate (source animal id): 25 | – | 0.25 (≈ 0.748 µM)
isolate (source animal id): 27 | – | 0.25 (≈ 0.748 µM)
isolate (source animal id): 28 | – | > 8
isolate (source animal id): 30 | – | ≤ 0.12
isolate (source animal id): 31 | – | > 8
isolate (source animal id): 32 | – | ≤ 0.12
isolate (source animal id): 34 | – | ≤ 0.12
isolate (source animal id): 35 | 2 (≈ 5.98 µM) | –
isolate (source animal id): 36 | – | ≤ 0.12
isolate (source animal id): 37 | – | ≤ 0.12
isolate (source animal id): 40 | – | ≤ 0.12
isolate (source animal id): 41 | – | ≤ 0.12
isolate (source animal id): 42 | 2 (≈ 5.98 µM) | –
isolate (source animal id): 43 | – | 0.25 (≈ 0.748 µM)
isolate (source animal id): 44 | 2 (≈ 5.98 µM) | –
isolate (source animal id): 46 | – | ≤ 0.12
isolate (source animal id): 49 | – | ≤ 0.12
isolate (source animal id): 50 | – | > 8
isolate (source animal id): 51 | – | 0.25 (≈ 0.748 µM)
isolate (source animal id): 52 | – | ≤ 0.12
isolate (source animal id): 53 | – | ≤ 0.12
isolate (source animal id): 55 | – | ≤ 0.12
isolate (source animal id): 56 | – | ≤ 0.12
isolate (source animal id): 57 | – | 0.25 (≈ 0.748 µM)
isolate (source animal id): 79 | 2 (≈ 5.98 µM) | –
isolate (source animal id): 88 | ≤ 0.12 | –
isolate (source animal id): 91 | ≤ 0.12 | –
isolate (source animal id): 92 | 0.5 (≈ 1.5 µM) | –
isolate (source animal id): 100 | – | ≤ 0.12
isolate (source animal id): 103 | – | ≤ 0.12
isolate (source animal id): 107 | – | ≤ 0.12
isolate (source animal id): 108 | – | ≤ 0.12
isolate (source animal id): 111 | ≤ 0.12 | –
isolate (source animal id): 112 | – | 0.25 (≈ 0.748 µM)
isolate (source animal id): 113 | – | 0.5 (≈ 1.5 µM)
isolate (source animal id): 121 | – | > 8
isolate (source animal id): 122 | 2 (≈ 5.98 µM) | 0.25 (≈ 0.748 µM)
isolate (source animal id): 123 | 1 (≈ 2.99 µM) | 1 (≈ 2.99 µM)
isolate (source animal id): 126 | – | > 8
isolate (source animal id): 133 | 1 (≈ 2.99 µM) | 0.5 (≈ 1.5 µM)
isolate (source animal id): 135 | – | 0.25 (≈ 0.748 µM)
isolate (source animal id): 138 | – | > 8
isolate (source animal id): 141 | – | ≤ 0.12
isolate (source animal id): 142 | – | 0.25 (≈ 0.748 µM)
isolate (source animal id): 145 | – | 0.25 (≈ 0.748 µM)
isolate (source animal id): 149 | – | ≤ 0.12
isolate (source animal id): 151 | – | 0.25 (≈ 0.748 µM)
isolate (source animal id): 152 | – | ≤ 0.12
isolate (source animal id): 154 | – | 0.5 (≈ 1.5 µM)
isolate (source animal id): 158 | 2 (≈ 5.98 µM) | –
isolate (source animal id): 159 | – | > 8
isolate (source animal id): 162 | – | > 8
isolate (source animal id): 168 | 4 (≈ 12 µM) | –
isolate (source animal id): 169 | 4 (≈ 12 µM) | –
isolate (source animal id): 170 | – | > 8
isolate (source animal id): 171 | 1 (≈ 2.99 µM) | 0.5 (≈ 1.5 µM)
isolate (source animal id): 172 | – | > 8
isolate (source animal id): 173 | – | > 8
isolate (source animal id): 175 | 4 (≈ 12 µM) | –
isolate (source animal id): 177 | 2 (≈ 5.98 µM) | –
isolate (source animal id): 179 | – | > 8
isolate (source animal id): 180 | – | > 8
isolate (source animal id): 181 | 4 (≈ 12 µM) | –
isolate (source animal id): 182 | 4 (≈ 12 µM) | –
isolate (source animal id): 183 | 2 (≈ 5.98 µM) | > 8
isolate (source animal id): 186 | – | > 8
isolate (source animal id): 187 | 4 (≈ 12 µM) | > 8
isolate (source animal id): 188 | – | > 8
isolate (source animal id): 190 | 4 (≈ 12 µM) | 0.5 (≈ 1.5 µM)
isolate (source animal id): 191 | – | > 8
isolate (source animal id): 192 | – | 0.25 (≈ 0.748 µM)
isolate (source animal id): 194 | 1 (≈ 2.99 µM) | –
isolate (source animal id): 195 | 4 (≈ 12 µM) | –
isolate (source animal id): 197 | 0.5 (≈ 1.5 µM) | –
isolate (source animal id): 201 | – | > 8
isolate (source animal id): 202 | – | > 8
isolate (source animal id): 209 | – | > 8
isolate (source animal id): 211 | 4 (≈ 12 µM) | > 8
isolate (source animal id): 214 | 2 (≈ 5.98 µM) | –
isolate (source animal id): 220 | – | > 8
isolate (source animal id): 221 | – | > 8
isolate (source animal id): 222 | 1 (≈ 2.99 µM) | –
isolate (source animal id): 223 | 1 (≈ 2.99 µM) | > 8
isolate (source animal id): 228 | 2 (≈ 5.98 µM) | –
isolate (source animal id): 230 | 8 (≈ 23.9 µM) | –
isolate (source animal id): 233 | – | > 8
isolate (source animal id): 235 | 2 (≈ 5.98 µM) | –
isolate (source animal id): 236 | 2 (≈ 5.98 µM) | –
isolate (source animal id): 237 | – | 0.25 (≈ 0.748 µM)
isolate (source animal id): 239 | 1 (≈ 2.99 µM) | –
isolate (source animal id): 241 | 4 (≈ 12 µM) | > 8
isolate (source animal id): 244 | 1 (≈ 2.99 µM) | –
isolate (source animal id): 246 | 1 (≈ 2.99 µM) | –
isolate (source animal id): 247 | 8 (≈ 23.9 µM) | –
isolate (source animal id): 250 | 1 (≈ 2.99 µM) | –
isolate (source animal id): 252 | 2 (≈ 5.98 µM) | 0.25 (≈ 0.748 µM)
isolate (source animal id): 253 | – | 0.25 (≈ 0.748 µM)
isolate (source animal id): 259 | – | > 8
isolate (source animal id): 260 | – | ≤ 0.12
isolate (source animal id): 262 | – | > 8
isolate (source animal id): 268 | ≤ 0.12 | –
isolate (source animal id): 282 | 2 (≈ 5.98 µM) | > 8
isolate (source animal id): 285 | 2 (≈ 5.98 µM) | –
isolate (source animal id): 287 | – | 0.25 (≈ 0.748 µM)
isolate (source animal id): 288 | – | 0.5 (≈ 1.5 µM)
isolate (source animal id): 289 | 0.5 (≈ 1.5 µM) | –
isolate (source animal id): 290 | 0.25 (≈ 0.748 µM) | –
isolate (source animal id): 291 | – | ≤ 0.12
isolate (source animal id): 293 | – | 0.25 (≈ 0.748 µM)
isolate (source animal id): 296 | 0.5 (≈ 1.5 µM) | –
isolate (source animal id): 298 | ≤ 0.12 | ≤ 0.12
isolate (source animal id): 299 | – | 0.25 (≈ 0.748 µM)
isolate (source animal id): 300 | – | ≤ 0.12
isolate (source animal id): 301 | ≤ 0.12 | –
isolate (source animal id): 302 | – | ≤ 0.12
isolate (source animal id): 304 | – | ≤ 0.12
isolate (source animal id): 306 | – | ≤ 0.12
isolate (source animal id): 308 | – | ≤ 0.12
isolate (source animal id): 309 | – | ≤ 0.12
isolate (source animal id): 310 | 4 (≈ 12 µM) | –
isolate (source animal id): 313 | – | 0.25 (≈ 0.748 µM)
isolate (source animal id): 318 | – | ≤ 0.12
isolate (source animal id): 320 | 0.5 (≈ 1.5 µM) | ≤ 0.12
isolate (source animal id): 321 | – | ≤ 0.12
isolate (source animal id): 323 | – | 0.25 (≈ 0.748 µM)
isolate (source animal id): 324 | – | ≤ 0.12
isolate (source animal id): 326 | – | ≤ 0.12
isolate (source animal id): 328 | – | 0.25 (≈ 0.748 µM)
isolate (source animal id): 329 | – | 0.25 (≈ 0.748 µM)
isolate (source animal id): 331 | ≤ 0.12 | –
isolate (source animal id): 333 | 0.25 (≈ 0.748 µM) | ≤ 0.12
isolate (source animal id): 335 | – | 0.5 (≈ 1.5 µM)
isolate (source animal id): 338 | – | 0.25 (≈ 0.748 µM)
isolate (source animal id): 341 | 2 (≈ 5.98 µM) | –
